Values of other authors as cited in patent publication US20220062247A1, “USE OF A PAR-1 ANTAGONIST FOR THE TREATMENT OF A CHRONIC INFLAMMATORY INTESTINAL DISEASE” (CVASTHERA, priority 2018, published 2022).

System: induced colitis
Conditions: induced colitis model in mice, by reducing the inflammation phenomenon; cited from earlier work

COc1ccc(C[C@H](NC(=O)Nc2ccc3c(CN4CCCC4)cn(Cc4c(Cl)cccc4Cl)c3c2)C(=O)N[C@@H](CCCNC(=N)N)C(=O)NCc2ccccc2)cc1 [L-arininamide-4-methoxy-N-[[[1-[92,6-dichlorophenyl-methyl]-3-(1-pyrrolidinylmethyl)-1H-indol-6-yl]amino]carbonyl]-1-phenylalanyl-N-(phenylmethyl)-(5)]
survival rate of animals: improving the survival rate
